The values that follow are results of earlier work, collected in patent publication US10196677B2, “Method for identification of sensitivity of a patient to telomerase inhibition therapy” (Geron Corporation, priority 2008, dated 2019).

Entries after “also recorded” stand apart in the source; their conditions may differ. [NPS] = N3'→P5' thiophosphoramidate linkage

For one series, the system named is cancer cells. The settings on record: cell culture, various cancer cell types.
In the next series the test system is animal tumor models. The settings on record: animal tumor models / human cancer cells, local and systemic delivery.

With “GRN163: oligonucleotide with sequence TAGGGTTAGACAA (SEQ ID NO:2) and N3′→P5′ thiophosphoramidate (NPS) linkages; hTR template inhibitor (all [NPS], sugars by position and methylation of C not given here)”, the “Inhibitory activity / growth inhibition of cancer cells in vitro” value in the series on cancer cells is reported as “has shown inhibitory activity in vitro in cell culture; also recorded: have shown inhibitory activity in vitro”. In the series on animal tumor models, the “Activity against tumors in vivo” value is given as “therapeutically effective”.
